Data taken from ChEMBL document CHEMBL5036343, “Discovery and development of CPL207280 as new GPR40/FFA1 agonist” (Eur J Med Chem, 2021).

Key:
Assay type in all cases: ADME, organism-based
Settings in all cases: in vivo
[1] = Cmax in Wistar Han rat at 3 mg/kg, po measured after 24 hours by UPLC-MS/MS analysis; set-up: route oral, dose 3 mg/kg, time 24 hrs
[2] = Tmax in Wistar Han rat at 3 mg/kg, po measured after 24 hours by UPLC-MS/MS analysis
[3] = Half life in Wistar Han rat at 3 mg/kg, po measured after 24 hours by UPLC-MS/MS analysis
[4] = Oral bioavailability in Wistar Han rat at 3 mg/kg measured after 24 hours by UPLC-MS/MS analysis

Row | SMILES | Cmax [1] [ng/mL] | Tmax [2] [h] | half-life [3] [min] | bioavailability [4] [%]
1 | Cc1cc(OCCCS(C)(=O)=O)cc(C)c1-c1cccc(COc2ccc3c(c2)OC[C@H]3CC(=O)O)c1 | 1830 | 2 | 174 | 36
2 | CC#C[C@@H](CC(=O)O)c1ccc(OCC(C)=C(C)C)cc1 | 1700 | 1 | 84.6 | 65
